The text below walks through data of patent US20250304576A1 (Cancer Research Technology Limited, priority 2022, published 2025).

One test addresses T1, Recombinant IKKβ (Homo sapiens, UniProt O14920).
T1 construct: purchased Millipore, Dundee, UK
T1 sequence (O14920 1-756): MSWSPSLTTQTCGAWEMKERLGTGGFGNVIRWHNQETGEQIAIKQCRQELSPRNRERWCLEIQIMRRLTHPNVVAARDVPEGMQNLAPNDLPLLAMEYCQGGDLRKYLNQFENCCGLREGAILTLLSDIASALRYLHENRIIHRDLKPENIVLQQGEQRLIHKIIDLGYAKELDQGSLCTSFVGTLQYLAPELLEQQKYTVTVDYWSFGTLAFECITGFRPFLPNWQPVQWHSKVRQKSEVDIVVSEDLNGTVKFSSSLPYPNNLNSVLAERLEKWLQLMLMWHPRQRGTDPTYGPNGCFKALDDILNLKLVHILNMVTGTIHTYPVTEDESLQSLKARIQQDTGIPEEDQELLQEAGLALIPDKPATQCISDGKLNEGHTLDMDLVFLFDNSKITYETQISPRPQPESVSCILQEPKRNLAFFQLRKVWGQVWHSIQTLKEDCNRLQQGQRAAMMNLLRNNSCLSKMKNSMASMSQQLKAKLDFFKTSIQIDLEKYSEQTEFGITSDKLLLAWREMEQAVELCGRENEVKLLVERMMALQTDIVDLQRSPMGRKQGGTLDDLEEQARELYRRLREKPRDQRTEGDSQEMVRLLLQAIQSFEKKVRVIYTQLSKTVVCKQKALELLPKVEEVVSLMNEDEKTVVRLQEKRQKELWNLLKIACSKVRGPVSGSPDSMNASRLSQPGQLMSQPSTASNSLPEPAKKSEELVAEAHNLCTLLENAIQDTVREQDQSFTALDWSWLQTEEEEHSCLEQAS
Briefly: DELFIA IKKβ kinase assay (apparent Ki, Cheng-Prusoff). It is filed as biochemical. In a few lines: (§1)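 Recombinant IKKα or IKKβ (37 nM) with 0.375 μM biotinylated IκB-α (Ser32) peptide and 40 μM ATP in 40 mM Tris-HCl pH 7.5, 20 mM MgCl2, 60 min at 30° C. Phospho-substrate captured on streptavidin and detected by anti-phospho-IκB-α plus europium anti-mouse IgG time-resolved fluorescence; apparent Ki via Cheng-Prusoff.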

Another test addresses T2, Recombinant IKKα (Homo sapiens, UniProt O15111).
T2 construct: purchased Millipore, Dundee, UK
T2 sequence (O15111 1-745): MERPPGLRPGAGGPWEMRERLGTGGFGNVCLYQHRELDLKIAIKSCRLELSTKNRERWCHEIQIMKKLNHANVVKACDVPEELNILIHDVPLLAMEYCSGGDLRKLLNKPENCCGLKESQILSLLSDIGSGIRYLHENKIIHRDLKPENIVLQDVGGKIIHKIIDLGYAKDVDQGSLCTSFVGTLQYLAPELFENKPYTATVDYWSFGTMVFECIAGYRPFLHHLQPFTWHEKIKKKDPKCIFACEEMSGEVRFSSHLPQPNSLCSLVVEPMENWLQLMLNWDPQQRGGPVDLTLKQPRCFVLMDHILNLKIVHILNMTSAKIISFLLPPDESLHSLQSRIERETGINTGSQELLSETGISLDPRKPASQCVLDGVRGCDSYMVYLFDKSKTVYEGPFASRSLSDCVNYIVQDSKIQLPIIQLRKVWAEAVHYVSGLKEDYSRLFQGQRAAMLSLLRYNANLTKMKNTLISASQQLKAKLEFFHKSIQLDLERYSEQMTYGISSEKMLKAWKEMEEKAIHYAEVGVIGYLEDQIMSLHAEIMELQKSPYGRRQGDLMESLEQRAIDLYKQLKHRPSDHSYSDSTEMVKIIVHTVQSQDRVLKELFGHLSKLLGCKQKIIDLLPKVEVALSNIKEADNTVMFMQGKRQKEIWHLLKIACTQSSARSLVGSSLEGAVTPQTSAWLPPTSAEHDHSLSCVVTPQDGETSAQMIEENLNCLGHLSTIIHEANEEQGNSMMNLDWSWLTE
Briefly: DELFIA IKKα kinase assay (apparent Ki, Cheng-Prusoff). In kind it is biochemical. In a few lines:
as §1

Where [1] appears, read: non-italicised figure: DELFIA assay.
Setting [2] is: DELFIA assay (first line of an example).

pKi: −log10 of the molar value.

For `CC(C)(C)C#Cc1c(-c2ccc3[nH]nc(N)c3c2)ccnc1N` [Example 72, 5-(2-Amino-3-(3,3-dimethylbut-1-yn-1-yl)pyridine-4-yl)-1H-indazol-3-amine], the pKi at Recombinant IKKβ (setting [1]) was 6.57; on Recombinant IKKα (setting [1]) it was 8.22.

For `Nc1nccc(-c2ccc3[nH]nc(N)c3c2)c1C#CC1CCCC1` [Example 73, 5-(2-Amino-3-(cyclopentylethynyl)pyridine-4-yl)-1H-indazol-3-amine], the pKi on Recombinant IKKβ (setting [1]) was 6.54; at Recombinant IKKα (setting [1]), 7.92.

For `Nc1nccc(-c2ccc3[nH]nc(N)c3c2)c1C#CC1CCCCC1` [Example 74, 5-(2-Amino-3-(cyclohexylethynyl)pyridine-4-yl)-1H-indazol-3-amine], the pKi at Recombinant IKKβ (setting [1]) is 6.47; on Recombinant IKKα (setting [1]), 7.92.

On to `Nc1nccc(-c2ccc3[nH]nc(N)c3c2)c1C#Cc1ccccc1` [Example 75, 5-(2-Amino-3-(phenylethynyl)pyridine-4-yl)-1H-indazol-3-amine], for which the pKi at Recombinant IKKβ (setting [1]) is 6.82; on Recombinant IKKα (setting [1]) it was 8.00.

For the compound `Nc1nccc(-c2ccc3[nH]nc(N)c3c2)c1C#CCO` [Example 83, 3-(2-Amino-4-(3-amino-1H-indazol-5-yl)pyridine-3-yl)prop-2-yn-1-ol], the pKi at Recombinant IKKβ (setting [1]) was 6.40; at Recombinant IKKα (setting [1]), 8.22.

As to `Nc1nccc(-c2ccc3[nH]nc(N)c3c2)c1C#CCCO` [Example 84, 4-(2-Amino-4-(3-amino-1H-indazol-5-yl)pyridine-3-yl)but-3-yn-1-ol], the negative-log Ki (pKi) on Recombinant IKKβ (setting [1]) is 6.99; at Recombinant IKKα (setting [1]) it was 9.00.

For `Nc1nccc(-c2ccc3[nH]nc(N)c3c2)c1C#CCCCO` [Example 85, 5-(2-Amino-4-(3-amino-1H-indazol-5-yl)pyridine-3-yl)pent-4-yn-1-ol], the negative-log Ki (pKi) on Recombinant IKKβ (setting [1]) is 7.02; on Recombinant IKKα (setting [1]), 8.40.

`CC(C)(O)C#Cc1c(-c2ccc3[nH]nc(N)c3c2)ccnc1N` [Example 87, 4-(2-Amino-4-(3-amino-1H-indazol-5-yl)pyridine-3-yl)-2-methylbut-3-yn-2-ol]: the negative-log Ki (pKi) is 6.53 on Recombinant IKKβ (setting [1]) and 8.10 on Recombinant IKKα (setting [1]).

For the compound `CC(C)(C)OCC#Cc1c(-c2ccc3[nH]nc(N)c3c2)ccnc1N` [Example 88, 5-(2-Amino-3-(3-(tert-butoxy)prop-1-yn-1-yl)pyridine-4-yl)-1H-indazol-3-amine], the negative-log Ki (pKi) was 5.63 on Recombinant IKKβ (setting [1]) and 6.88 at Recombinant IKKα (setting [1]).

For `Nc1nccc(-c2ccc3[nH]nc(N)c3c2)c1C#CC1(O)CCCCC1` [Example 90, 1-((2-Amino-4-(3-amino-1H-indazol-5-yl)pyridine-3-yl)ethynyl)cyclohexan-1-ol], the pKi was 5.85 on Recombinant IKKβ (setting [1]) and 7.44 on Recombinant IKKα (setting [1]).

On to `Nc1nccc(-c2ccc3[nH]nc(N)c3c2)c1C#CC1(O)CCCCCC1` [Example 91, 1-((2-Amino-4-(3-amino-1H-indazol-5-yl)pyridine-3-yl)ethynyl)cycloheptan-1-ol], for which the pKi on Recombinant IKKβ (setting [1]) was 5.51; at Recombinant IKKα (setting [1]) it was 6.98.

In the case of `CC(C)(N)C#Cc1c(-c2ccc3[nH]nc(N)c3c2)ccnc1N` [Example 92, 5-(2-Amino-3-(3-amino-3-methylbut-1-yn-1-yl)pyridin-4-yl)-1H-indazol-3-amine], the figures for the pKi on Recombinant IKKβ (setting [1]) and on Recombinant IKKα (setting [1]) were 6.49 and 8.15, respectively.

On to `Nc1nccc(-c2ccc3[nH]nc(N)c3c2)c1C#CCCN1CCCCC1` [Example 93, 5-(2-Amino-3-(4-(piperidin-1-yl)but-1-yn-1-yl)pyridin-4-yl)-1H-indazol-3-amine], for which the negative logarithm of the Ki (pKi) was 6.06 at Recombinant IKKβ (setting [1]) and 7.49 on Recombinant IKKα (setting [1]).

Regarding `Nc1nccc(-c2ccc3[nH]nc(N)c3c2)c1C#CCCCN1CCCCC1` [Example 95, 5-(2-Amino-3-(5-(piperidin-1-yl)pent-1-yn-1-yl)pyridin-4-yl)-1H-indazol-3-amine], the pKi on Recombinant IKKβ (setting [1]) was 5.49; on Recombinant IKKα (setting [1]) it was 7.04.

As for `Nc1nccc(-c2ccc3[nH]nc(N)c3c2)c1C#CCCCN1CCOCC1` [Example 96, 5-(2-Amino-3-(5-morpholinopent-1-yn-1-yl)pyridin-4-yl)-1H-indazol-3-amine], the pKi was 5.94 at Recombinant IKKβ (setting [1]) and 6.46 at Recombinant IKKα (setting [1]).

Consider `Nc1nccc(-c2ccc3[nH]nc(N)c3c2)c1C#CCCC(=O)N1CCOCC1` [Example 99, 5-(2-Amino-4-(3-amino-1H-indazol-5-yl)pyridine-3-yl)-1-morpholinopent-4-yn-1-one], for which the negative logarithm of the Ki (pKi) was 6.27 at Recombinant IKKβ (setting [1]) and 7.82 at Recombinant IKKα (setting [1]).

On to `Nc1cc(-c2cc(-c3ccccc3)c3[nH]nc(N)c3c2)ccn1` [Example 104, 5-(2-Aminopyridin-4-yl)-7-phenyl-1H-indazol-3-amine], for which the figures for the negative-log Ki (pKi) at Recombinant IKKβ (setting [1]) and on Recombinant IKKα (setting [1]) were 6.08 and 7.27, respectively.

Take `Nc1cc(-c2cc(-c3ccoc3)c3[nH]nc(N)c3c2)ccn1` [Example 129, 5-(2-Aminopyridin-4-yl)-7-(furan-3-yl)-1H-indazol-3-amine]: the negative-log Ki (pKi) at Recombinant IKKβ (setting [1]) was 6.29; on Recombinant IKKα (setting [1]), 8.00.

On to `CC(C)(C)C#Cc1cc(-c2ccnc(N)c2)cc2c(N)n[nH]c12` [Example 137, 5-(2-Aminopyridin-4-yl)-7-(3,3-dimethylbut-1-yn-1-yl)-1H-indazol-3-amine], for which the values for the pKi at Recombinant IKKβ (setting [1]) and at Recombinant IKKα (setting [1]) were 5.83 and 7.28, respectively.

As for `CC(C)(O)C#Cc1cc(-c2ccnc(N)c2)cc2c(N)n[nH]c12` [Example 140, 4-(3-Amino-5-(2-aminopyridin-4-yl)-1H-indazol-7-yl)-2-methylbut-3-yn-2-ol], the pKi is 5.52 at Recombinant IKKβ (setting [1]) and 6.55 at Recombinant IKKα (setting [1]).

With `C#Cc1cc(-c2ccnc3[nH]ccc23)cc2c(N)n[nH]c12` [Example 200, 7-Ethynyl-5-(1H-pyrrolo[2,3-b]pyridin-4-yl)-1H-indazol-3-amine], the pKi at Recombinant IKKβ (setting [2]) was 6.86; on Recombinant IKKα (setting [2]), 7.59.

Take `CC(C)(C)C#Cc1cc(-c2ccnc3[nH]ccc23)cc2c(N)n[nH]c12` [Example 201, 7-(3,3-Dimethylbut-1-yn-1-yl)-5-(1H-pyrrolo[2,3-b]pyridin-4-yl)-1H-indazol-3-amine]: the figures for the pKi on Recombinant IKKβ (setting [2]) and on Recombinant IKKα (setting [2]) were 5.86 and 7.21, respectively.

Consider `Nc1n[nH]c2c(C#CC3CC3)cc(-c3ccnc4[nH]ccc34)cc12` [Example 202, 7-(Cyclopropylethynyl)-5-(1H-pyrrolo[2,3-b]pyridin-4-yl)-1H-indazol-3-amine], for which the pKi on Recombinant IKKβ (setting [2]) was 6.74; at Recombinant IKKα (setting [2]), 7.89.

For the compound `Nc1n[nH]c2c(C#CC3CCCC3)cc(-c3ccnc4[nH]ccc34)cc12` [Example 203, 7-(Cyclopentylethynyl)-5-(1H-pyrrolo[2,3-b]pyridin-4-yl)-1H-indazol-3-amine], the values for the pKi on Recombinant IKKβ (setting [2]) and at Recombinant IKKα (setting [2]) were 6.34 and 7.59, respectively.

On to `Nc1n[nH]c2c(C#CC3CCCCC3)cc(-c3ccnc4[nH]ccc34)cc12` [Example 204, 7-(Cyclohexylethynyl)-5-(1H-pyrrolo[2,3-b]pyridin-4-yl)-1H-indazol-3-amine], for which the results for the pKi at Recombinant IKKβ (setting [2]) and at Recombinant IKKα (setting [2]) were 5.93 and 6.77, respectively.

With `CC(C)(O)C#Cc1cc(-c2ccnc3[nH]ccc23)cc2c(N)n[nH]c12` [Example 206, 4-(3-Amino-5-(1H-pyrrolo[2,3-b]pyridin-4-yl)-1H-indazol-7-yl)-2-methylbut-3-yn-2-ol], the pKi was 5.82 at Recombinant IKKβ (setting [2]) and 7.09 at Recombinant IKKα (setting [2]).

Turning to `Nc1n[nH]c2c(C#CCCCN3CCOCC3)cc(-c3ccnc4[nH]ccc34)cc12` [Example 210, 7-(5-Morpholinopent-1-yn-1-yl)-5-(1H-pyrrolo[2,3-b]pyridin-4-yl)-1H-indazol-3-amine], the negative-log Ki (pKi) on Recombinant IKKβ (setting [2]) is 5.51; on Recombinant IKKα (setting [2]) it was 7.64.
